Consider six compounds from patent EP4603105A1, “PHARMACEUTICAL COMPOSITION CONTAINING CYCLIC COMPOUND HAVING SELECTIVE KRAS INHIBITORY EFFECT AGAINST HRAS AND NRAS” (CHUGAI SEIYAKU KABUSHIKI KAISHA, priority 2022, dated 2024).

Where a SMILES comes first, the peptide text is derived from it. Bridges are numbered along the chain shown (N, C = ends). [ ]: non-standard residue; d: D form. hPhe(3-Cl-4-CF3) = N[C@@H](CCc1ccc(C(F)(F)F)c(Cl)c1)C(=O)O; NPrPhe(4-CF3) = CCCN[C@@H](Cc1ccc(C(F)(F)F)cc1)C(=O)O; NMeGly(cPent) = CN[C@H](C(=O)O)C1CCCC1; Hyp = O=C(O)[C@@H]1C[C@@H](O)CN1; NMeL = CN[C@@H](CC(C)C)C(=O)O; Aze = O=C(O)[C@@H]1CCN1; Ac4c = NC1(C(=O)O)CCC1; Sar = CNCC(=O)O

The subject of assay [1] is human lung cancer strain NCI-H441. In kind it is cell-based. A digest of the protocol:
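Readout: […] after the ATP-based reagent. Compound: serial dilutions in dimethyl sulfoxide.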

Assay [2] deals with GDP-bound KRAS wild-type protein (Homo sapiens, UniProt P01116). The experiment in a line: Binding to KRAS by surface plasmon resonance (SPR), dissociation constant KD. A digest of the protocol:
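Recombinant RAS proteins bearing a biotinylated Avi tag and loaded with GDP served as the captured ligand, recaptured fresh every cycle. Binding responses were referenced to an uncoated surface and a buffer-only blank cycle. Dissociation constants were obtained by 1:1 model fitting at 30°C.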

Assay [3] deals with GDP-bound NRAS wild-type protein (Homo sapiens, UniProt P01111). Put plainly: Binding to NRAS by surface plasmon resonance (SPR), KD and KD ratio to KRAS. A digest of the protocol: (§1)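 GDP-loaded biotinylated Avi-tag RAS proteins (E. coli-expressed) captured on a Biotin CAPture chip at ~100–300 RU; single-cycle kinetics at 30°C, 100 µL/min, 75 s injections of rising compound concentrations. HBS pH 7.4 running buffer with 1 mM DTT, 10 mM MgCl2, 10 µM GDP, 4% DMSO. KD from 1:1 binding fit.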
Chain of GDP-bound NRAS wild-type protein (P01111 whole entry): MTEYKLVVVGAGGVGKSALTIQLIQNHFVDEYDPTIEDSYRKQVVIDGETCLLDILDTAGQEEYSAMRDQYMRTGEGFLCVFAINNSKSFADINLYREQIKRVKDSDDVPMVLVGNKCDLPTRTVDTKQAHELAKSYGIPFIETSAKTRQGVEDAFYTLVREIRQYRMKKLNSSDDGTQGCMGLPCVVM

Assay [4] concerns the target HRAS wild-type protein (Homo sapiens, UniProt P01112). The experiment in a line: Binding to HRAS by surface plasmon resonance (SPR), KD and KD ratio to KRAS. A digest of the protocol: as §1
Setting [5] is: ratio of KD for GDP-bound NRAS wild-type protein to KD for KRAS.
Where [6] appears, read: ratio of KD for HRAS wild-type protein to KD for KRAS.
The mark [7] stands for this setting: Single Cycle Kinetics, 1:1 binding model.
Setting [8] is: ratio of the KD value with respect to GDP-bound NRAS wild-type protein to the KD value with respect to KRAS.
[9] abbreviates: ratio of the KD value with respect to HRAS wild-type protein to the KD value with respect to KRAS.

Chain of HRAS wild-type protein (P01112 whole entry): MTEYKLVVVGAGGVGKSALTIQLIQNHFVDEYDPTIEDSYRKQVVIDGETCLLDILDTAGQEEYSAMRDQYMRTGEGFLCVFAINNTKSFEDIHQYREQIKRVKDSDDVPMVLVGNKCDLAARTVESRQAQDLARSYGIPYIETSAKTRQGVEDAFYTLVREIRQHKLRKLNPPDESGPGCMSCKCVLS
Chain of GDP-bound KRAS wild-type protein (P01116 1-188 isoform P01116-2): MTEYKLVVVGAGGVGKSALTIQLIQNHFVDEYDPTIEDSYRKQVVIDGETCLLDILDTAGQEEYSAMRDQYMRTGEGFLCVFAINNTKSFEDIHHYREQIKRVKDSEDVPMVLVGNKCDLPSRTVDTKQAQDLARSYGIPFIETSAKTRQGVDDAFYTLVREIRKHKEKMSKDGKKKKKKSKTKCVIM

In turn, `C=CCCC[C@H]1C(=O)N[C@@H]([C@@H](C)CC)C(=O)N(C)CC(=O)N(C)[C@H]2CCCCCN(C2=O)[C@@H](Cc2ccc(C(F)(F)F)cc2)C(=O)N(C)CC(=O)N[C@@H](CCc2cc(F)c(C(F)(F)F)c(F)c2)C(=O)N2C[C@H](OCC)C[C@H]2C(=O)N[C@](C)(CC=C)C(=O)N(C)[C@@H](C2CCCC2)C(=O)N(C)[C@H](C(=O)N2CCOCC2)CC(=O)N1C` [PP0880] came in with an IC50 in assay [1] of 0.16 µM. This compound showed a Kd in assay [2] (Single Cycle Kinetics) of 0.0045 µM. For the same compound, in assay [3] (setting [5]), the “NRAS /KRAS” value is “B (a compound having 3 or more and less than 10 is denoted as B)”. Also, the “HRAS /KRAS” value in assay [4] (setting [6]) was “B (a compound having 3 or more and less than 10 is denoted as B)”.
`CCCN1C(=O)CN(C)C(=O)[C@@H]2CCN2C(=O)[C@H]([C@@H](C)CC)NC(=O)[C@H](CC(C)C)N(C)C(=O)C[C@@H](C(=O)N(C)C)NC(=O)[C@H](C2CCCC2)N(C)C(=O)C2(CCC2)NC(=O)[C@@H]2C[C@@H](OCC)CN2C(=O)[C@H](CCc2ccc(C(F)(F)F)c(Cl)c2)NC(=O)CN(C)C(=O)[C@@H]1Cc1ccc(C(F)(F)F)cc1` [PP0378] ([NMeL]I[Aze][Sar][NPrPhe(4-CF3)][Sar][hPhe(3-Cl-4-CF3)][Hyp](Et)[Ac4c][NMeGly(cPent)]D-NMe2; lactam N-11) displayed an IC50 in assay [1] of 0.11 µM. Besides, binding in assay [2] (1:1 binding model) was characterised by a dissociation constant (Kd) of 0.00085 µM. Further, the “NRAS /KRAS” value in assay [3] (setting [5]) was “B (a compound having 3 or more and less than 10 is denoted as B)”. Moreover, in assay [4] (setting [6]), the “HRAS /KRAS” value is “B (a compound having 3 or more and less than 10 is denoted as B)”.
In turn, `CCO[C@@H]1C[C@H]2C(=O)NC3(CCC3)C(=O)N(C)[C@@H](C3CCCC3)C(=O)N(C)[C@H](C(=O)N3CCOCC3)CC(=O)N(C)[C@@H](Cc3cccc(F)c3)C(=O)N[C@@H]([C@@H](C)CC)C(=O)N(C)CC(=O)N(C)[C@H]3CCCCCN(C3=O)[C@@H](Cc3ccc(C(F)(F)F)cc3)C(=O)N(C)CC(=O)N[C@@H](CCc3cc(F)c(C(F)(F)F)c(F)c3)C(=O)N2C1` [PP0856] displayed an IC50 in assay [1] of 0.0667 µM. The affinity in assay [2] (Single Cycle Kinetics), expressed as Kd, was 0.00096 µM. For the same compound, the “NRAS /KRAS” value in assay [3] (setting [5]) is “B (a compound having 3 or more and less than 10 is denoted as B)”. The “HRAS /KRAS” value in assay [4] (setting [6]) is “B (a compound having 3 or more and less than 10 is denoted as B)”.
`CCO[C@@H]1C[C@H]2C(=O)NC3(CCC3)C(=O)N(C)[C@@H](C3CCCC3)C(=O)N(C)[C@H](C(=O)N(C)C)CC(=O)N(C)[C@@H](C)C(=O)N[C@@H]([C@H](C)CC)C(=O)N(C)CC(=O)N(C)[C@H]3CCCCCN(C3=O)[C@@H](Cc3ccc(C(F)(F)F)cc3)C(=O)N(C)CC(=O)N[C@@H](CCc3cc(F)c(C(F)(F)F)c(F)c3)C(=O)N2C1` [PP0729] registered an IC50 in assay [1] of 0.216 µM. Moreover, binding in assay [2] (setting [7]) was characterised by a dissociation constant (Kd) of 0.0027 µM. The “NRAS /KRAS” value in assay [3] (setting [8]) was “B (a compound having 3 or more and less than 10 is denoted as B)”. The “HRAS /KRAS” value in assay [4] (setting [9]) was “B (a compound having 3 or more and less than 10 is denoted as B)”.
For the compound `CCO[C@@H]1C[C@H]2C(=O)NC3(CCC3)C(=O)N(C)[C@@H](C3CCCC3)C(=O)N(C)[C@H](C(=O)N3CCOCC3)CC(=O)N(C)[C@@H](Cc3ccccc3)C(=O)N[C@@H]([C@@H](C)CC)C(=O)N(C)CC(=O)N(C)[C@H]3CCCCCN(C3=O)[C@@H](Cc3ccc(C(F)(F)F)cc3)C(=O)N(C)CC(=O)N[C@@H](CCc3cc(F)c(C(F)(F)F)c(F)c3)C(=O)N2C1` [PP0687], the IC50 in assay [1] came out at 0.0441 µM. This compound also came in with a dissociation constant Kd in assay [2] (setting [7]) of 0.00064 µM. In assay [3] (setting [8]), the “NRAS /KRAS” value was “B (a compound having 3 or more and less than 10 is denoted as B)”. For the same compound, in assay [4] (setting [9]), the “HRAS /KRAS” value is “B (a compound having 3 or more and less than 10 is denoted as B)”.
In assay [1], `CCO[C@@H]1C[C@H]2C(=O)NC3(CCC3)C(=O)N(C)[C@@H](C3CCCC3)C(=O)N(C)[C@H](C(=O)N(C)C)CC(=O)N(C)[C@@H](CC)C(=O)N[C@@H]([C@@H](C)CC)C(=O)N(C)CC(=O)N(C)[C@H]3CC(C)=C(C)CN(C3=O)[C@@H](Cc3ccc(C(F)(F)F)cc3)C(=O)N(C)CC(=O)N[C@@H](CCc3cc(F)c(C(F)(F)F)c(F)c3)C(=O)N2C1` [PP1048] returned an IC50 of 0.134 µM. This compound also yielded a Kd in assay [2] (Single Cycle Kinetics) of 0.00049 µM. Further, in assay [3] (setting [5]), the “NRAS /KRAS” value was “C (A compound having a KD ratio of 0.1 or more and less than 3 is denoted as C)”. Further, in assay [4] (setting [6]), the “HRAS /KRAS” value is “C (A compound having a KD ratio of 0.1 or more and less than 3 is denoted as C)”.
